# Laboratory results as given in patent publication US9410958B2, “Alkyne-activated fluorogenic azide compounds and methods of use thereof” (The Regents of the University of California, priority 2014, dated 2016).
# Columns and labels:
# fixed HEK 293T cells = experiment: No-wash labeling of glycoproteins on fixed cells; type: cell-based; conditions: 10 μM probe, 100 μM TBTA, 1 mM CuSO4, 2 mM sodium ascorbate
# Experimental: (A) Labeling glycoproteins on live cell surfaces. […] (B) Labeling glycoproteins on fixed cells.
# Fixed (3% paraformaldehyde) Ac4ManNAl-treated HEK 293T cells were also evaluated as substrates CalFluor labeling. In this case, copper-click reaction with 50 μM CuSO4 and 300 μM BTTAA gave poor labeling, potentially due to sequestration of the copper catalyst by denatured proteins. However, use of higher catalyst concentrations (100 μM TBTA, 1 mM CuSO4, 2 mM sodium ascorbate) gave robust labeling with 10 μM CalFluor dyes (FIG. 34B). […] Similar results were achieved when performing the same experiments on fixed CHO K1 cells.
# [1] = test system: sialic acids in developing zebrafish; experiment: Visualizing sialic acids in developing zebrafish; type: in vivo; conditions: 24 or 36 hpf, imaged without washing
# Experimental: The probes were tested for visualization of glycans in vivo. […] To test the utility of CalFluors in this system for such applications, zebrafish embryos at the single-cell stage were injected with SiaNAl. After either 24 or 36 hours post fertilization (hpf), the embryos were bathed in a solution containing a CalFluor probe along with copper catalyst.
# Zebrafish were injected with 50 pmol SiaNAl at the one to four-cell stage and allowed to develop over time. (A) Real-time labeling of sialic acids. After 24 hpf, zebrafish were incubated in a solution containing 1 μM CalFluor 580 and copper catalyst. […] (B) Comparing no-wash labeling performance by azide probes. After 36 hpf, the embryos were transferred to a solution containing the fluorophore (1 μM for CalFluor 580 and AlexaFluor 594 alkyl azide, or 5 μM for 3-azido-7-hydroxycoumarin) and copper catalyst and imaged without washing after 20 minutes.
# mammalian cells = experiment: Mammalian cell surface labeling of Ac4ManNAl-treated cells; type: cell-based; conditions: cells labeled with Ac4ManNAl
# Experimental: Compound 9 was tested as a biological imaging reagent using mammalian cells that had been metabolically labeled with peracetylated N-pentynoylmannosamine (Ac4ManNAl), which is metabolized to N-pentynoyl sialic acid (SiaNAl) and presented on cell-surface glycoconjugates. […] It was hypothesized that replacing the methoxy groups with more water soluble alkoxy substituents would maintain the electronic balance between the pendant aryl and the Si-xanthene moieties while enhancing hydrophilicity. To this end, compound 10 was synthesized in six steps from 2,4-difluoronitrobenzene (FIG. 5, and Scheme 1).
# Finally, 2.5 μL 1 mM azido fluorophore in 4:1 PBS/MeOH was added. […] Microscopy was performed using a Zeiss AxioVert 200M inverted microscope using a Plan-Neofluar 40×/0.75 objective. Exposure time was 1000 ms using the FITC, Cy3, or Cy5 filters. Images were acquired and processed using SlideBook 5.0, and are shown as a single z-plane.
# [2] = Photophysical properties and fluorescence quantum yields of Si-rhodamines in PBS pH 7.4; type: physicochemical
# Experimental: The fluorescence quantum yields of the purified amino, azido, and triazolyl Si-rhodamines were measured in pH 7.4 phosphate buffered saline (PBS) using cresyl violet in methanol (Φfl=0.54) as a standard (Table 1). […] The best candidate of the four, 8-azidonaphthyl-substituted Si-rhodamine 1, afforded only a 5-fold increase in fluorescence quantum yield as compared with the 29-fold enhancement observed with the corresponding fluorescein.
# Fluorescence quantum yields were measured by creating 2 mM stocks of dyes in MeOH. The dyes were then diluted to 20 μM in PBS, then further diluted in PBS to various final concentrations. The absorbance and emission spectra of five different concentrations of dye were measured while keeping maximum absorbance under 0.2. Solutions of probe were excited at 600 nm, and emission was integrated from 600 to 800 nm. Plotting integrated emission vs. absorbance at 600 nm yielded a line, whose slope corresponds to the fluorescence quantum yield. Absolute quantum yields were determined by comparison with the slope of the line measured for cresyl violet in MeOH (Φfl=0.54). The reported quantum yields are the average of three sets of measurements. Absorbance spectra were recorded on a Varian Cary 50 UV-Visible spectrophotometer. Fluorescence spectra were recorded on a Photon Technology International Quanta Master 4 L-format scanning spectrofluorometer equipped with an LPS-220B 75-W xenon lamp and power supply, A-1010B lamp housing with an integrated igniter, switchable 814 photon counting/analog photomultiplier detection unit, and MD5020 motor driver. Measurements were made in 1 cm×0.4 cm quartz cuvettes with a total sample volume of 1 mL.
# CHO K1 cells = experiment: No-wash cell surface labeling of SiaNAl residues, CHO K1; type: cell-based
# Experimental: Si-rhodamine 10 was evaluated as a reagent for imaging SiaNAl residues on live cell surfaces. CHO K1 cells were incubated with 50 μM Ac4ManNAl for 3 days, washed, and then incubated with 5 μM 10, 50 μM CuSO4, 300 μM BTTAA, and 1 mM sodium ascorbate. […] Cell-surface glycan labeling was visualized as it occurred in real time (FIG. 14). Background labeling was minimal on control cells treated with N-acetylmannosamine (Ac4ManNAc) (FIG. 13).
# Escherichia coli = experiment: No-wash peptidoglycan labeling of Gram-negative Escherichia coli; type: cell-based
# Experimental: E. coli incubated with 5 mM endobcnDala or Dala for 2 h from a starting OD of 0.05 and imaged in the presence of 20 μM of azido Si-rhodamine 11 as described above. Only a fraction of the bacteria incubated with endobcnDala were fluorescently labeled under these conditions. (A), (C) Fluorescence and brightfield images of E. coli incubated with 5 mM endobcnDala. (B), (D) Fluorescence and brightfield images of E. coli incubated with 5 mM Dala. Scale bar=10 μm. […] Scale bar=1 μm.
# Finally, the bacteria were imaged using the NIR fluorogenic azide probes. It was confirmed that azido Si-rhodamines 9, 10, and 11 would undergo an enhancement in fluorescence upon reaction with cyclooctynes. These probes were incubated with endo-bicyclononynol in vitro to generate triazole products (FIG. 24A). […] All three bacterial strains were incubated with endobcnDala 14 as before, but after washing away excess amino acid, the bacteria were incubated with 10 or 20 μM 11 for 1 hour and directly imaged without washing away excess probe (FIG. 7B). […] While the biosynthetic machinery can tolerate fluorophore-conjugated D-amino acids, allowing one-step PG imaging versus our two-step metabolic/chemical labeling approach, chemical reporter groups are much smaller than long-wavelength fluorophores and therefore minimize possible biological perturbations. […]
# HEK 293T cells = experiment: No-wash live cell surface labeling and mitochondrial co-staining, HEK 293T
# Experimental: Cells were grown in 8-well Lab-Tek Chambered Coverglass systems in media (HAM-F12 for CHO K1 cells, DMEM for HEK 293T cells) containing 10% fetal bovine serum, penicillin/streptomycin, and either 50 μM Ac4ManNAl or Ac4ManNAc for 3 d at 37° C., as described previously. The cells were then washed with 3×300 μL PBS, then incubated with 100 μL freshly prepared click solution. Click solution comprised of 50 μM CuSO4, 300 μM BTTAA, 2.5 mM sodium ascorbate, and 5 μM azido Si-rhodamine. This was prepared by first adding 0.5 μL 50 mM CuSO4 in H2O and 3 μL 50 mM BTTAA in H2O to 481.5 μL PBS. Next, 12.5 μL freshly prepared 100 mM sodium ascorbate in PBS was added. Finally, 2.5 μL 1 mM azido Si-rhodamine in 4:1 PBS/MeOH was added. After 15 min, the reactions were quenched with the addition of 1 μL of 100 mM bathocuproine disulfonate (BCS) in H2O (final concentration 1 mM). […] For real-time imaging, images were acquired as the labeling progressed without quenching the reaction.
# HEK 293T cells were grown in a LabTek 8-well chambered glass slide in DMEM containing fetal bovine serum, penicillin/streptomycin for 3 d at 37° C. The cells were then incubated with 100 nM MitoTracker Green FM and 1 μg/mL Hoechst 33342 in fresh media for 30 min at 37° C., then media removed and the cells incubated with 100 μL PBS containing 5 μM 10. The cells were then directly imaged.
# The CalFluors' performance in no-wash cell imaging experiments was evaluated. Using established methods, cell-surface glycoconjugates were metabolically labeled with peracetylated N-pentynoyl mannosamine (Ac4ManNAl), which introduces terminal alkyne groups into sialic acid residues (SiaNAl). HEK 293T cells treated in this fashion were then incubated, without fixation, with a cocktail containing 50 μM CuSO4, 300 μM BTTAA, 5 mM sodium ascorbate and 10 μM CalFluor dye.
# Cells were grown with 50 μM Ac4ManNAl or Ac4ManNAc for 3 days, then subjected to click labeling with CalFluor probes. (A) Labeling glycoproteins on live cell surfaces. Cells were treated with 10 μM azide probe, 50 μM CuSO4, 300 μM BTTAA ligand, and 5 mM sodium ascorbate. The reaction was quenched with 1 mM BCS and the cells imaged without further wash steps. (B) Labeling glycoproteins on fixed cells. Cells were fixed with 3% paraformaldehyde, then treated with 10 μM CalFluor probe, 1 mM CuSO4, 100 μM TBTA ligand, and 2 mM sodium ascorbate. 0.1 mg/mL BSA was added to prevent the TBTA from precipitating over the course of the reaction.
# [3] = test system: M. smegmatis, C. glutamicum, L. monocytogenes; experiment: No-wash peptidoglycan labeling with compound 11; type: cell-based; conditions: endobcnDala 14-treated, 10 or 20 μM probe, 1 hour
# Experimental: Finally, the bacteria were imaged using the NIR fluorogenic azide probes. It was confirmed that azido Si-rhodamines 9, 10, and 11 would undergo an enhancement in fluorescence upon reaction with cyclooctynes. These probes were incubated with endo-bicyclononynol in vitro to generate triazole products (FIG. 24A). […] All three bacterial strains were incubated with endobcnDala 14 as before, but after washing away excess amino acid, the bacteria were incubated with 10 or 20 μM 11 for 1 hour and directly imaged without washing away excess probe (FIG. 7B). […] While the biosynthetic machinery can tolerate fluorophore-conjugated D-amino acids, allowing one-step PG imaging versus our two-step metabolic/chemical labeling approach, chemical reporter groups are much smaller than long-wavelength fluorophores and therefore minimize possible biological perturbations. […] It is hypothesized that the presence of an outer membrane (though apparently not a mycobacterial “mycomembrane”, FIG. 8A-D) limits access of compound 11 to PG. By contrast, smaller dyes were able to access both terminal alkynes and cyclooctynes in metabolically labeled E. coli PG (FIG. 27).
# The bacteria were incubated with either endobcnDala or Dala and washed as described above. […]
# [4] = test system: wild-type L. monocytogenes; experiment: D-alanine competition experiment; conditions: 5 mM cyclooctyne amino acid, 0 or 20 mM D-alanine
# Experimental: The bacteria were incubated with 5 mM cyclooctyne amino acid, in the presence of either 0 or 20 mM D-alanine, and labeled following the general procedure.
# Bacteria were grown to an optical density (OD) of 0.4 in their respective media (7H9 for M. smegmatis, LB for C. glutamicum, BHI for L. monocytogenes) at 37° C. (M. smegmatis and L. monocytogenes) or 30° C. (C. glutamicum). Then, 5 mM D-amino acid was added (from a 1 M stock in H2O, 1 eq. NaOH was added to help solubilize compounds 12, 13, and 14) and the cells grown for one doubling time. The bacteria were then added to a 96-well V-bottom plate at 200 μL/well and pelleted by centrifugation at 3500 rpm for 3 min. The supernatant was removed and the cells resuspended in 200 μL PBS and pelleted again. This wash process was repeated twice more. The cells were then incubated with 100 μL of 20 μM azido-PEG3-carboxyrhodamine 110 (Click Chemistry Tools) in PBS (made by diluting a 1 mM stock in 9:1 PBS/DMSO) and placed in a 37° C. shaker for 1 h. Alternatively, for alkDala, labeling was performed by incubation with 100 μL of 20 μM azido-PEG3-carboxyrhodamine 110, 128 μM TBTA, 1 mM CuSO4, and 1.2 mM sodium ascorbate in PBS in a 37° C. shaker for 1 h. The cells were washed three times, then fixed with 4% paraformaldehyde for 10 min at rt. The cells were washed another three times, then studied by flow cytometry and microscopy.
# [5] = in methanol; cited from earlier work
compound,measurement,setting,value
[N-]=[N+]=Nc1cc2ccc(O)cc2oc1=O,labeling of fixed cells,fixed HEK 293T cells,performed comparably to the CalFluors
same,no-wash alkyne-dependent labeling,[1],obscured alkyne-dependent labeling
"COc1cc(OC)c(C2=C3C=CC(=[N+](C)C)C=C3[Si](C)(C)c3cc(N(C)C)ccc32)cc1N=[N+]=[N-] [Compound 9-N3, 3-Azido-4,6-dimethoxy-Si-rhodamine]",background labeling,mammalian cells,significant alkyne-independent background labeling even after repeated washing steps
same,λabs,[2],654 nm
same,λem,[2],666 nm
same,Φfl,[2]; cresyl violet in methanol as standard,0.0042
same,Change in Φfl,"[2]; increase (↑), triazole relative to the azide",48 fold
CN(C)c1ccc2c(c1)[Si](C)(C)C1=CC(=[N+](C)C)C=CC1=C2c1cc(N=[N+]=[N-])c(OCCOCCOS(=O)(=O)O)cc1OCCOCCOS(=O)(=O)[O-] [Compound 11],cell-surface labeling,"CHO K1 cells; Ac4ManNAl-treated CHO K1, no wash, 15 min",robust cell-surface labeling
same,background labeling,"CHO K1 cells; CHO K1, control or unwanted labeling",no unwanted background or mitochondrial labeling
same,labeling of peptidoglycan with dye,"Escherichia coli; 5 mM endobcnDala, 20 μM probe",not efficiently labeled
same,cell-surface labeling,"HEK 293T cells; Ac4ManNAl-treated HEK 293T, no wash",robust cell-surface labeling
same,"background, intracellular or mitochondrial labeling",HEK 293T cells; HEK 293T,no unwanted background or mitochondrial labeling
same,cell permeability,HEK 293T cells; HEK 293T,not cell permeable
same,no-wash fluorescence signal on bacteria,[3],Clear fluorescence signal over background
NC(CNC(=O)OC[C@@H]1[C@@H]2CCC#CCC[C@@H]21)C(=O)O (some centres unmarked) [Compound 14],effect of excess D-alanine on labeling,[4],excess D-alanine decreases the fluorescence intensity
same,metabolic incorporation of D-amino acid,Escherichia coli,similarly to the Gram-positive bacteria
cresyl violet,Φfl of the standard,[5],0.54
